Results taken from patent publication US9328374B2, “Selective culture medium and method for detecting carbapenem-resistant bacteria in a test sample” (Institut National de la Sante et de la Recherche Medicale …, priority 2011, dated 2016).
Several values for one entry are separate records, joined by “and”; a condition that tells them apart may be missing. Identical values can stand only once.

Experiments:
E. coli = assay: MIC of imipenem, ertapenem and meropenem; assay type: cell-based, Escherichia coli
E. cloacae = assay: MIC of imipenem, ertapenem and meropenem; assay type: cell-based, Enterobacter cloacae
P. stuartii = assay: MIC of imipenem, ertapenem and meropenem; assay type: cell-based, Providencia stuartii
C. freundii = assay: MIC of imipenem, ertapenem and meropenem; assay type: cell-based, Citrobacter freundii
P. mirabilis = assay: MIC of imipenem, ertapenem and meropenem; assay type: cell-based
E. aerogenes = assay: MIC of imipenem, ertapenem and meropenem; assay type: cell-based, Enterobacter aerogenes
S. typhimurium = assay: MIC of imipenem, ertapenem and meropenem; assay type: cell-based
enterobacterial isolates = assay: MIC of imipenem, ertapenem and meropenem (groups of isolates, other species); assay type: cell-based, Enterobacteriaceae

With `C[C@@H](O)[C@H]1C(=O)N2C(C(=O)O)=C(S[C@@H]3CN[C@H](C(=O)N(C)C)C3)[C@H](C)[C@H]12` [MEM, meropenem] as the compound, how does the MIC (E. coli; strain E. coli HB4, (OmpC-, OmpF-), non-carbapenemase producer) read?
Its MIC is 0.25 µg/mL.

What about the MIC (E. coli; strain E. coli JAP, IMP-1) of the same compound?
Its MIC is 0.5 µg/mL.

What about the MIC (E. coli; strain E. coli MAR, Overexpressed AmpC, non-carbapenemase producer) of the same compound?
The MIC was 2 µg/mL.

And the MIC (E. coli; strain E. coli MET, Chromosome-encoded extended-spectrum cephalosporinase, non-carbapenemase producer)?
Its MIC is 0.012 µg/mL.

What about the MIC (E. coli; strain E. coli ROB, OXA-48) of the same compound?
The MIC was 0.25 µg/mL.

What about the MIC (E. coli; strain E. coli SYD, CMY-2, non-carbapenemase producer) of the same compound?
Its MIC is 0.012 µg/mL.

What about the MIC (E. cloacae; E. cloacae 501, OXA-48 + TEM-1 + CTX-M-15) of the same compound?
The MIC was 1.5 µg/mL.

And the MIC (E. cloacae; E. cloacae 1012, TEM-1 + SHV-12, non-carbapenemase producer)?
Its MIC is 0.016 µg/mL.

What about the MIC (E. cloacae; E. cloacae 1019, TEM-1, non-carbapenemase producer, overexpressed AmpC) of the same compound?
The MIC was 0.094 µg/mL.

And the MIC (E. cloacae; E. cloacae 1027, TEM-1 + CTX-M-15, non-carbapenemase producer)?
The MIC was 0.016 µg/mL.

And the MIC (E. cloacae; E. cloacae 1072, TEM-1 + OXA-1, non-carbapenemase producer, overexpressed AmpC)?
Its MIC is 0.064 µg/mL.

What about the MIC (E. cloacae; E. cloacae 5434 (wild type)) of the same compound?
Its MIC is 0.032 µg/mL.

And the MIC (E. cloacae; E. cloacae 5434, (wild type), non-carbapenemase producer)?
Its MIC is 0.032 µg/mL.

What about the MIC (E. cloacae; E. cloacae 7725, (wild type), non-carbapenemase producer) of the same compound?
Its MIC is 0.012 µg/mL.

And the MIC (E. cloacae; E. cloacae 7746, (wild type), non-carbapenemase producer)?
Its MIC is 0.032 µg/mL.

And the MIC (E. cloacae; E. cloacae 10111 (TEM-1 + CTX-M-15))?
The MIC was 0.094 µg/mL.

What about the MIC (E. cloacae; E. cloacae 10111, TEM-1 + CTX-M-15, non-carbapenemase producer, overexpressed AmpC) of the same compound?
The MIC was 0.094 µg/mL.

And the MIC (E. cloacae; E. cloacae 1008029, VIM-1+ CTX-M-3)?
The MIC was over 32 µg/mL.

And the MIC (E. cloacae; E. cloacae 1008079, IMP-1)?
Its MIC is over 32 µg/mL.

What about the MIC (E. cloacae; E. cloacae 1008187, IMP-1 + CTX-M-15) of the same compound?
Its MIC is 4 µg/mL.

What about the MIC (E. cloacae; E. cloacae (KPC-2)) of the same compound?
Its MIC is 2 µg/mL.

And the MIC (E. cloacae; E. cloacae ARF (overexpressed AmpC))?
Its MIC is 0.12 µg/mL.

And the MIC (E. cloacae; E. cloacae ARF, Overexpressed AmpC, non-carbapenemase producer)?
Its MIC is 0.12 µg/mL.

And the MIC (E. cloacae; E. cloacae AZA (overexpressed AmpC))?
Its MIC is 0.12 µg/mL.

What about the MIC (E. cloacae; E. cloacae AZA, Overexpressed AmpC, non-carbapenemase producer) of the same compound?
The MIC was 0.12 µg/mL.

What about the MIC (E. cloacae; E. cloacae BEU, OXA-48 + TEM-1 + CTX-M-15 + SHV-12) of the same compound?
Its MIC is 0.5 µg/mL.

And the MIC (E. cloacae; E. cloacae BLA (overexpressed AmpC))?
The MIC was 0.12 µg/mL.

And the MIC (E. cloacae; E. cloacae BLA, Overexpressed AmpC, non-carbapenemase producer)?
The MIC was 0.12 µg/mL.

And the MIC (E. cloacae; E. cloacae CFVL, KPC-2 + TEM-3)?
The MIC was 1 µg/mL.

What about the MIC (E. cloacae; E. cloacae CLO (CTX-M-15)) of the same compound?
Its MIC is 0.12 µg/mL.

What about the MIC (E. cloacae; E. cloacae CLO, CTX-M-15, non-carbapenemase producer) of the same compound?
Its MIC is 0.12 µg/mL.

And the MIC (E. cloacae; E. cloacae CON (overexpressed AmpC))?
The MIC was 0.12 µg/mL.

What about the MIC (E. cloacae; E. cloacae CON, Overexpressed AmpC, non-carbapenemase producer) of the same compound?
The MIC was 0.25 µg/mL.

And the MIC (E. cloacae; E. cloacae CVB (VEB-1))?
The MIC was 0.12 µg/mL.

What about the MIC (E. cloacae; E. cloacae CVB, VEB-1, non-carbapenemase producer) of the same compound?
Its MIC is 0.12 µg/mL.

And the MIC (E. cloacae; E. cloacae HMG, KPC-2 + TEM-1)?
The MIC was 16 µg/mL.

What about the MIC (E. cloacae; E. cloacae HPTU (KPC-2 + TEM-1 + SHV-11)) of the same compound?
The MIC was 1.5 µg/mL.

What about the MIC (E. cloacae; E. cloacae HPTU, KPC-2 + TEM-1 + SHV-11) of the same compound?
The MIC was 1.5 µg/mL.

What about the MIC (E. cloacae; E. cloacae IR38 (NDM-1 + CTX-M-15)) of the same compound?
Its MIC is 2 µg/mL.

What about the MIC (E. cloacae; E. cloacae IR38, NDM-1 + CTX-M-15) of the same compound?
Its MIC is 2 µg/mL.

And the MIC (E. cloacae; E. cloacae KAR, VIM-1+ SHV-70)?
Its MIC is 0.5 µg/mL.

And the MIC (E. cloacae; E. cloacae TAW (IMP-8 + SHV-12))?
Its MIC is 0.5 µg/mL.

What about the MIC (E. cloacae; E. cloacae TAW, IMP-8 + SHV-12) of the same compound?
Its MIC is 0.5 µg/mL.

And the MIC (E. cloacae; E. cloacae TUR (OXA-48 + SHV-5))?
Its MIC is 0.5 µg/mL.

And the MIC (E. cloacae; E. cloacae TUR, OXA-48 + SHV-5)?
Its MIC is 0.5 µg/mL.

And the MIC (E. cloacae; E. cloacae TWA, IMP-8)?
Its MIC is 1 µg/mL.

And the MIC (E. cloacae; strain E. cloacae 10111, TEM-1 + CTX-M-15, non-carbapenemase producer)?
The MIC was 0.094 µg/mL.

What about the MIC (E. cloacae; strain E. cloacae BLA, Overexpressed AmpC, non-carbapenemase producer) of the same compound?
The MIC was 0.12 µg/mL.

And the MIC (E. cloacae; strain E. cloacae CLO, CTX-M-15, non-carbapenemase producer)?
Its MIC is 0.12 µg/mL.

And the MIC (E. cloacae; strain E. cloacae CON, Overexpressed AmpC, non-carbapenemase producer)?
Its MIC is 0.12 µg/mL.

What about the MIC (E. cloacae; strain E. cloacae CVB, VEB-1, non-carbapenemase producer) of the same compound?
Its MIC is 0.12 µg/mL.

What about the MIC (E. cloacae; strain E. cloacae HPTU, KPC-2 + TEM-1 + SHV-11) of the same compound?
The MIC was 1.5 µg/mL.

What about the MIC (E. cloacae; strain E. cloacae TAW, IMP-8 + SHV-12) of the same compound?
Its MIC is 0.5 µg/mL.

What about the MIC (E. cloacae; strain E. cloacae TUR, OXA-48 + SHV-5) of the same compound?
The MIC was 0.5 µg/mL.

What about the MIC (P. stuartii; P. stuartii NDM (NDM-1 + OXA-1 + CMY-6)) of the same compound?
The MIC was 1.5 µg/mL.

And the MIC (P. stuartii; P. stuartii PS1 (NDM-1 + CMY-6 + OXA-1))?
Its MIC is 1.5 µg/mL.

What about the MIC (P. stuartii; P. stuartii PS1, NDM-1 + CMY-6 + OXA-1) of the same compound?
The MIC was 1.5 µg/mL.

What about the MIC (P. stuartii; strain P. stuartii PS1, NDM-1 + CMY-6 + OXA-1) of the same compound?
The MIC was 1.5 µg/mL.

What about the MIC (C. freundii; C. freundii 1003, CTX-M-15 + TEM-1, non-carbapenemase producer) of the same compound?
The MIC was 0.023 µg/mL.

And the MIC (C. freundii; C. freundii 7767 (wild type))?
The MIC was 0.016 µg/mL.

And the MIC (C. freundii; C. freundii 7767, (wild type), non-carbapenemase producer)?
Its MIC is 0.016 µg/mL.

And the MIC (C. freundii; C. freundii 10107 (TEM-1 + SHV-12))?
Its MIC is 0.023 µg/mL.

What about the MIC (C. freundii; C. freundii 10107, TEM-1 + SHV-12, non-carbapenemase producer) of the same compound?
The MIC was 0.023 µg/mL.

What about the MIC (C. freundii; C. freundii 10135 (CTX-M-15)) of the same compound?
Its MIC is 0.023 µg/mL.

What about the MIC (C. freundii; C. freundii 10135, CTX-M-15, non-carbapenemase producer) of the same compound?
Its MIC is 0.023 µg/mL.

What about the MIC (C. freundii; C. freundii MAU (Overexpressed AmpC + TEM-3)) of the same compound?
The MIC was 1 µg/mL.

And the MIC (C. freundii; C. freundii MAU, Overexpressed AmpC + TEM-3, non-carbapenemase producer)?
The MIC was 1 µg/mL.

And the MIC (C. freundii; C. freundii STE (NDM-1 + OXA-1 + OXA-9 + OXA-10 + CTX-M-15 + TEM-1))?
The MIC was over 32 µg/mL.

And the MIC (C. freundii; C. freundii STE, NDM-1 + TEM-1 + CTX-M-15 + VIM-4 + OXA-1 + OXA-9 + OXA-10 + OXA-181)?
Its MIC is over 32 µg/mL.

What about the MIC (C. freundii; strain C. freundii 10107, TEM-1 + SHV-12, non-carbapenemase producer) of the same compound?
Its MIC is 0.023 µg/mL.

What about the MIC (C. freundii; strain C. freundii 10135, CTX-M-15, non-carbapenemase producer) of the same compound?
The MIC was 0.023 µg/mL.

And the MIC (C. freundii; strain C. freundii MAU, Overexpressed AmpC + TEM-3, non-carbapenemase producer)?
Its MIC is 1 µg/mL.

And the MIC (P. mirabilis; P. mirabilis 1031 (CTX-M-14 + TEM-1 + SHV-11))?
The MIC was 0.032 µg/mL.

What about the MIC (P. mirabilis; P. mirabilis 1031, CTX-M-14 + TEM-1 + SHV-11, non-carbapenemase producer) of the same compound?
Its MIC is 0.032 µg/mL.

What about the MIC (P. mirabilis; P. mirabilis PMA (ACC-1)) of the same compound?
The MIC was 0.12 µg/mL and 0.064 µg/mL.

What about the MIC (P. mirabilis; P. mirabilis PMA, ACC-1, non-carbapenemase producer) of the same compound?
Its MIC is 0.064 µg/mL.

What about the MIC (E. aerogenes; E. aerogenes 1009, TEM-24, non-carbapenemase producer) of the same compound?
Its MIC is 0.016 µg/mL.

And the MIC (E. aerogenes; E. aerogenes 1085 (TEM-24))?
The MIC was 0.023 µg/mL.

What about the MIC (E. aerogenes; E. aerogenes 1085, TEM-24, non-carbapenemase producer) of the same compound?
Its MIC is 0.023 µg/mL.

What about the MIC (E. aerogenes; strain E. aerogenes 1085, TEM-24, non-carbapenemase producer) of the same compound?
Its MIC is 0.023 µg/mL.

And the MIC (S. typhimurium; S. typhimurium 1081 (CTX-M-1))?
The MIC was 0.032 µg/mL.

And the MIC (S. typhimurium; S. typhimurium 1081, CTX-M-1, non-carbapenemase producer)?
Its MIC is 0.032 µg/mL.

And the MIC (S. typhimurium; strain S. typhimurium 1081, CTX-M-1, non-carbapenemase producer)?
The MIC was 0.032 µg/mL.

And the MIC (enterobacterial isolates; S. marcescens 0911033, IMP-1)?
The MIC was over 32 µg/mL.

And the MIC (enterobacterial isolates; S. marcescens 1008091, VIM-1+ CTX-M-15)?
Its MIC is over 32 µg/mL.

What about the MIC (enterobacterial isolates; S. marcescens C7052, KPC-2 + TEM-1 + SHV-12) of the same compound?
The MIC was over 32 µg/mL.

And the MIC (enterobacterial isolates; S. marcescens D6403, KPC-2 + TEM-1)?
The MIC was over 32 µg/mL.
